Data taken from patent publication US20240415845A1, “Compositions of Iboga Alkaloids and Methods of Treatment” (priority 2022, published 2024).

System: special operations veterans with combat and/or blast exposure
Test: World Health Organization Disability Assessment Schedule 2.0 (WHODAS 2.0)
Format: in vivo, human
Conditions: for WHODAS 2.0 Total, effect size D (Cohen's D) / WHODAS 2.0 Total score: all participants; for WHODAS 2.0 Total score: baseline 30.2 ± 14.7, mean ± SD; for WHODAS 2.0 Self Care subscale: baseline 5.2% ± 9.2%; for WHODAS 2.0 Mobility subscale: baseline 14.7% ± 15.7%; for WHODAS 2.0 Interpersonal subscale: baseline 32.3% ± 20.4; for WHODAS 2.0 Community Participation subscale: baseline 35.6% ± 21.1%; for WHODAS 2.0 Cognition subscale: baseline 36.1% ± 14.6%; for WHODAS 2.0 Life Activities subscale: baseline 41.1% ± 24.8%
Text: The pre-specified primary outcome was change in the World Health Organization Disability Assessment Schedule 2.0 (WHODAS) (Gold L. H. et al., J. Am. Acad. Psychiatry Law 42, 9 (2014)) from baseline to post-treatment, with change from baseline to the one-month follow-up a secondary outcome. Additional pre-specified secondary outcomes included post-treatment changes on the Clinician Administered PTSD Scale (CAPS-5; Weathers, F. W. et al., Psychol. Assess., 30, 383-395 (2018)), Montgomery-Åsberg Depression Rating Scale (MADRS; Montgomery, S. A., Br. J. Psychiatry J. Ment. Sci., 134, 382-389 (1979)) and the Hamilton-Anxiety Rating Scale (HAM-A; Bruss, G. S., et al., Psychiatry Res., 53, 191-202 (1994)). […] An additional dose of magnesium was administered approximately 12 hours later. To assess the significance of post-treatment changes, linear mixed effects (LME) models were used for each outcome measure. False Discovery Rate (FDR; Benjamini, Y. et al., J. R. Stat. Soc. Ser. B Methodol., 57, 289-300 (1995)) was applied to correct for multiple comparisons.
With subjects in the fasting state, an intravenous infusion of 1 gram of magnesium sulfate was administered 1-2 hours prior to treatment. […] Medical staff (MD, RN, or EMT) were onsite at a ratio of at least 1 staff per 2 patients throughout treatment for monitoring and management, but no specific coaching or psychological support was provided during treatment.
Post treatment, each subject was assessed four days after treatment, one month after treatment, and, if willing, one year after treatment. The post-treatment assessments conducted at four days and at one month after treatment included neuropsychological testing, measures of PTSD, depression, anxiety, mystical experiences, functional imaging and EEG. Post-treatment assessments conducted at one year after treatment included PTSD, depression, and anxiety measures.
World Health Organization Disability Assessment Scale 2.0 (WHODAS 2.0) was used as a measure of function. WHODAS was used to assess the impact of health conditions across six life domains (cognition, mobility, self-care, interpersonal, life activities, and community participation) and it is sensitive to change over time (Gold, L. H., J. Am. Acad. Psychiatry Law 42, 9 (2014). Each item in the assessment is rated on a scale ranging from no problems to extreme problems (Üstün, T. B. et al., Measuring health and disability: Manual for WHO disability assessment schedule WHODAS 2.0. (World Health Organization, 2010)). To capture inter-individual variability in disability the WHODAS complex scoring method was used. Raw scores were converted to a metric ranging from 0(no disability) to 100 (full disability), by calculating the ratio of the participant's score relative to the maximum possible score in each domain as well as to the total score (Id.). A score of 20%-39% was considered mild, 40%-59% was moderate, 60%-79% was moderate-severe and 80%-100% was severe. Scores from baseline were compared to scores from one-month post treatment.
A measure of disability for health and disability on life functions is the World Health Organization Disability Assessment Schedule 2.0 (WHODAS). The items are designed to be sensitive to change due to a treatment, and the measure assesses disability over the past 30 days. The items measured are cognition, self-care, mobility, getting along. life activity, and participation in society. The WHODAS measure gives a rating of 1 for no disability, 2 for mild disability and 3 for moderate disability. FIG. 7A is a graph showing results from the World Health Organization Disability Assessment Scale 2.0 (WHODAS 2.0) assessment for each subject at baseline (prior to treatment), about one week after treatment, and one month after treatment. The dashed line represents the means of the individual scores. FIG. 7B is a bar graph of self-reported disability using the WHODAS total scores at baseline and one-month after treatment.

## CCC1CC2CC3c4[nH]c5ccc(OC)cc5c4CCN(C2)C13 (centres unmarked) [ibogaine, Ibogaine]
Baseline vs one-month
  WHODAS 2.0 Cognition subscale, effect size D: 2.38
  WHODAS 2.0 Community Participation subscale, effect size D: 1.78
  WHODAS 2.0 Interpersonal subscale, effect size D: 1.63
  WHODAS 2.0 Life Activities subscale, effect size D: 1.44
  WHODAS 2.0 Mobility subscale, effect size D: 0.83
  WHODAS 2.0 Self Care subscale, effect size D: 0.51
Baseline vs one-month post
  WHODAS 2.0 Total, effect size D (Cohen's D): 2.20
Baseline vs one-week post
  WHODAS 2.0 Total, effect size D (Cohen's D): 0.74
Baseline vs post-treatment
  WHODAS 2.0 Cognition subscale, effect size D: 0.96
  WHODAS 2.0 Community Participation subscale, effect size D: 0.53
  WHODAS 2.0 Interpersonal subscale, effect size D: 0.60
  WHODAS 2.0 Life Activities subscale, effect size D: 0.48
  WHODAS 2.0 Mobility subscale, effect size D: 0.53
  WHODAS 2.0 Self Care subscale, effect size D: 0.37
one-month post treatment, baseline about 2.5 (FIG. 7B)
  self-reported disability WHODAS total score (rating 1 no, 2 mild, 3 moderate disability): over 1
one-month post
  WHODAS 2.0 Total score: 5.1
one-month
  WHODAS 2.0 Self Care subscale: 1.0% ±
  WHODAS 2.0 Mobility subscale: 1.3% ±
  WHODAS 2.0 Interpersonal subscale: 4.8% ±
  WHODAS 2.0 Community Participation subscale: 5.9% ±
  WHODAS 2.0 Cognition subscale: 5.0% ±
  WHODAS 2.0 Life Activities subscale: 9.1% ±
one-week post
  WHODAS 2.0 Total score: 19.9
post-treatment
  WHODAS 2.0 Self Care subscale: 1.9% ±
  WHODAS 2.0 Mobility subscale: 7.2% ±
  WHODAS 2.0 Interpersonal subscale: 21.7% ±
  WHODAS 2.0 Community Participation subscale: 24.7% ±
  WHODAS 2.0 Cognition subscale: 19.2% ±
  WHODAS 2.0 Life Activities subscale: 31.6% ±
